These results are taken from patent US20220280625A1 (Northwestern University, priority 2019, published 2022).

The test system of one data set is choroidal angiogenesis. The experiment in a line: Ex vivo choroidal sprouting assay. As to conditions: FIGS. 24B-24D. It is filed as cell-based. The procedure: Ex vivo choroidal sprouting assay. As a first step towards determining the anti-angiogenic properties of the ABT898 PLPs, we performed an ex vivo choroidal sprouting assay. Briefly, eyes are enucleated, dissection is performed to remove the cornea, iris, lens, retina, and vitreous. The peripheral RPE-choroid-sclera complex is plated in Matrigel, angiogenesis develops spontaneously over Day 4-Day 7, and can be quantitated using reverse phase brightfield microscopy (FIG. 24A). ABT898 peptide had no effect upon choroidal angiogenesis (FIGS. 24B and 24C). Alternatively, ABT898 Ester and Amide PLPs, which are not hydrolysable, reduced angiogenesis by 24% and 81%, respectively. Cell penetrating peptides that are rich in arginine residues, aid the cellular penetration of cargo via endocytosis. In order to enhance the cellular penetration capacity and the solubility of the PLPs we modified the C-terminus with arginine moieties. […] Without wishing to be bound by any particular theory, we believe this is because the peptide alone is degraded in the Matrigel milieu. […] In addition, we performed a dose dependent analysis of growth area at Day 4 for treatment with ABT898 amide RR PLP, and the results are shown in FIG. 25.
Ex Vivo Choroidal Sprouting Assay: Anti-VEGF PLPs. […]

In data set [1] the target is T1, thermolysin (Bacillus thermoproteolyticus, UniProt P00800).
T1 sequence (P00800 233-548): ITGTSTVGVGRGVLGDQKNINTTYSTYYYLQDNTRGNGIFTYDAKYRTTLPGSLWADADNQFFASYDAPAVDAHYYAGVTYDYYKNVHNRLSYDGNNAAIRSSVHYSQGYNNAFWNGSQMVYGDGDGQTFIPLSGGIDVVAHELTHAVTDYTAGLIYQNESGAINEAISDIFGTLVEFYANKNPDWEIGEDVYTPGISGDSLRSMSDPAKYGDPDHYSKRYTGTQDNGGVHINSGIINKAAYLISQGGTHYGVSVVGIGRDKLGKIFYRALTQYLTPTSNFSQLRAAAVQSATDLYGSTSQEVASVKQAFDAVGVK
Briefly: Enzyme degradation kinetics of ABT898 peptide and PLP with thermolysin (HPLC). The data set is classed as in vitro ADME. As to conditions: 200 μM stock, thermolysin 0.1 μM, over 450 min; PLP = AR PLP (FIG. 26A). The procedure: FIGS. 26A-26B. Enzyme degradation kinetics and BLI assay. FIG. 26A. Percent enzymatic cleavage of peptide and PLP (AR PLP) upon the treatment of thermolysin (peptide:enzyme=2000:1) was monitored by HPLC over 450 min. FIG. 26B. Bio-layer interferometry data measuring the binding constant between AR PLP and CD36 receptor.
Enzyme Degradation Kinetics. An important feature of the PLP platform is that the globular structure of peptides arranged on a polymeric scaffold impart high proteolytic resistance. We performed an enzyme resistance assay to confirm that the PLP is resistant to proteolysis as compared to the peptide alone. Both peptide and PLP stock solutions (200 μM) were treated with thermolysin enzyme (0.1 μM) and their degradation profiles were monitored using high performance liquid chromatography (HPLC). […] We calculated the area under the peak at each time point to construct the percent cleaved and plotted it against time for both peptide and PLP (FIG. 26A).

Data set [2] concerns elastase. The experiment in a line: 20 μL of elastase (1 mM), 20 μL Tris buffer (250 mM Tris pH 7.2, 1500 mM NaCl, 500 mM CaCl2) and 140 μL of water. As to conditions: up to 550 min.
Data set [3] in a line: Systolic blood pressure by tail-cuff system in mice. It is filed as in vivo, C57BL/6 mice. As to conditions: intraperitoneal injection, measured for 20 minutes. The procedure:
Healthy C57BL/6 mice were injected with either terlipressin peptide or terlipressin PLP and the systolic blood pressure was measured over time by employing a tail-cuff system (CODA™). The mice were anesthetized with ketamine and placed in restraints over a heated pad. Following 5 minutes of background measurements, the drugs were administrated by intraperitoneal injection (IP) and the measurements continued for another 20 minutes (limited by the effect of ketamine). The delta BP was measured and plotted as a function of time.

For data set [4] the following is noted: human, in vivo; cited from earlier work.
The test system of data set [5] is elastase. Briefly: in vitro. As to conditions: isolated enzyme elastase, pH 7.2.
Protocol: Enzymatic cleavage. Elastase was chosen as a model protease since it can cleave the three glycine fragment for easy recognition of cleavage product which is also similar to the natural initial cleavage product in serum. Remaining peptide percentage was measured by the ratio between the area under the curve at each time point and the area under the curve of the first time point.
Twenty microliters (20 μL) of elastase (1 mM), 20 μL of monomer (FIG. 9A) or polymer (FIG. 9B) (2 mM), 20 μL Tris buffer (250 mM Tris pH 7.2, 1500 mM NaCl, 500 mM CaCl2)) and 140 μL of water were added to a HPLC vial and loaded in the autosampler carousel and a sample immediately taken for injection at 1 min. Subsequently, the reaction was monitored via RP-HPLC (10-80% buffer B) with an injection every 50 minutes following the initial injection.
The ratio of the AUC at each time point relative to the first time point is plotted.
The target in data set [6] is T1, thermolysin.
Protocol: To discern the relationship between backbone structure and peptide stability against proteolysis, enzyme kinetics of each peptide brush polymer with different backbones were measured in PBS buffer with added protease (i.e., thermolysin).
For enzyme-triggered cleavage experiments, the molar ratio of thermolysin to peptide was set to 1:200. Moreover, the temperature was set to 37° C. […] Then thermolysin (0.1 mg, 3.0 nmol, 1 equiv.) was added into the polymer solution which was stirred in a preheated oil bath at 37° C.

Bridge positions count the residues as written; N and C are the ends. Square brackets hold non-standard residues; d marks the D form. Ends that are not written are not given here. Peptide text beside a SMILES is read from it. * marks the point of attachment. X1 = O=C1[C@@H]2[C@H](C(=O)N1CCCCCC(=O)*)[C@H]1C=C[C@@H]2C1; d(aIle) = CC[C@H](C)[C@@H](N)C(=O)O

For “ABT898 peptide: synthetic peptide GVi(allo)SQIRP which mimics the TSP1 type-1 repeat (GV[d(aIle)]SQIRP) [reference compound]”, the “effect upon choroidal angiogenesis” value in the data set with choroidal angiogenesis was “no effect”. Also, the “degradation by thermolysin (HPLC peak over time)” value with thermolysin [1] is “rapid degradation”.

Take GGGCYFQNCPKG: in the data set with elastase [2], the cleaved bond entry was “G-C”.

As for `NCCCC[C@H](NC(=O)[C@@H]1CCCN1C(=O)[C@@H]1CSSC[C@H](NC(=O)CNC(=O)CNC(=O)CN)C(=O)N[C@@H](Cc2ccc(O)cc2)C(=O)N[C@@H](Cc2ccccc2)C(=O)N[C@@H](CCC(N)=O)C(=O)N[C@@H](CC(N)=O)C(=O)N1)C(=O)NCC(N)=O` [terlipressin, Terlipressin] (H-GGGCYFQNCPKG-NH2; disulfide 4-9), the “change in systolic blood pressure over time (delta BP)” value in data set [3] was “immediate and very large increase in blood pressure, which dropped rapidly in a manner of few minutes”. Moreover, in data set [4], the distribution half-life is 8 min and the elimination half-life was 6 min.

For the molecule `NCCCC[C@H](NC(=O)[C@@H]1CCCN1C(=O)[C@@H]1CSSC[C@H](NC(=O)CNC(=O)CNC(=O)CNC(=O)CCCCCN2C(=O)[C@@H]3[C@H](C2=O)[C@H]2C=C[C@@H]3C2)C(=O)N[C@@H](Cc2ccc(O)cc2)C(=O)N[C@@H](Cc2ccccc2)C(=O)N[C@@H](CCC(N)=O)C(=O)N[C@@H](CC(N)=O)C(=O)N1)C(=O)NCC(N)=O` [terlipressin peptide monomer] (X1-GGGCYFQNCPKG-NH2; disulfide 4-9), the share remaining at 550 min, 0.2 mM with elastase [5] is roughly 50%.

With “poly(PepNorIm15): peptide brush polymer of GPLGLAGGWGERDGS norbornene dicarboxyimide monomer, DP 15 (also: peptide is a side chain of a norbornene dicarboxyimide brush polymer, DP 15)”, in the data set with thermolysin [6], the “proteolytic stability against thermolysin” value is reported as “demonstrated resistance to proteolysis”.
